“And” between values parts separate entries of the source, which are not always exact repeats. Equal entries are not always repeated.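 Tested at 5 concentrations; 48 h exposure; 96-well plates; endpoints linearly interpolated, else capped at highest concentration. GI50 = concentration required for 50% inhibition of growth. Definition used: TGI = concentration required for complete inhibition of growth.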
Experiments:
Assay in all cases: NCI anticancer screen, dose series, 48 h
COLO 205 colon = test system: COLO 205 colon
DMS 114 small cell lung = test system: DMS 114 small cell lung
K-562 leukemia = test system: K-562 leukemia
LXFL 529 NSCLC = test system: LXFL 529 NSCLC
M19-MEL melanoma = test system: M19-MEL melanoma
NCI-H460 lung = test system: NCI-H460 lung
OVCAR-4 ovarian = test system: OVCAR-4 ovarian
RPMI-8226 leukemia = test system: RPMI-8226 leukemia
UACC-257 melanoma = test system: UACC-257 melanoma
UO-31 renal = test system: UO-31 renal
PC-3 prostate = test system: PC-3 prostate

Row | Structure (SMILES) | TGI (COLO 205 colon) | TGI (DMS 114 small cell lung) | GI50 (K-562 leukemia) | TGI (K-562 leukemia) | TGI (LXFL 529 NSCLC) | TGI (M19-MEL melanoma) | GI50 (NCI-H460 lung) | TGI (NCI-H460 lung) | TGI (OVCAR-4 ovarian) | TGI (RPMI-8226 leukemia) | TGI (UACC-257 melanoma) | GI50 (UO-31 renal) | TGI (UO-31 renal) | TGI (PC-3 prostate) | GI50 (UACC-257 melanoma) | GI50 (COLO 205 colon) | GI50 (OVCAR-4 ovarian) | GI50 (PC-3 prostate) | GI50 (RPMI-8226 leukemia)
1 | O=c1ncccn1C1OC(CO)C(O)C1F (stereo unspecified) | > 100 µM | > 100 µM | > 100 µM | > 100 µM | > 100 µM | > 100 µM | > 100 µM | > 100 µM | > 100 µM | > 100 µM | > 100 µM | > 100 µM | > 100 µM |  |  |  |  |  | 
2 | CC12O[Te]34OC1(C)C(C)(O3)C2(C)O4 | 31.1 µM | 25.7 µM |  |  | 26.7 µM | 25.5 µM |  | 61.3 µM | 27.4 µM |  | 33.6 µM |  | 23.5 µM |  |  |  |  |  | 
3 | O=C1[C@H]2ON(c3ccccc3)C(c3cccc([N+](=O)[O-])c3)[C@H]2C(=O)N1c1ccc(Cc2ccc(N3C(=O)[C@@H]4ON(c5ccccc5)C(c5cccc([N+](=O)[O-])c5)[C@@H]4C3=O)cc2)cc1 (stereo partly specified) | > 100 µM | > 100 µM |  | > 100 µM | > 100 µM | > 100 µM |  | > 100 µM | > 100 µM | > 100 µM | > 100 µM |  | > 100 µM |  |  |  |  |  | 
4 | CC1(C)Oc2ccccc2N2O[C@@H]3C(=O)N(c4ccccc4)C(=O)[C@@H]3C21c1ccccc1 (stereo partly specified) | > 100 µM | 62.9 µM |  | > 100 µM | > 100 µM | 72.5 µM |  | > 100 µM | 34.1 µM | > 100 µM | 78.7 µM |  | > 100 µM |  |  |  |  |  | 
5 | Nc1ccc2c(SCC(=O)Nc3ccccc3-c3ccccc3NC(=O)CSc3c4ccccc4nc4cc(N)ccc34)c3ccccc3nc2c1 | 43 µM | 56.2 µM |  | 28.3 µM | 41.3 µM | 70.5 µM |  | 97.8 µM | 78.9 µM | 38.6 µM | 71.9 µM |  | 58.4 µM | 54.6 µM |  |  |  |  | 
6 | O=C1c2c(O)ccc(O)c2C(=O)c2c(NCCNCCO)ccc(NCCNCCO)c21 | 1.23 µM and 0.769 µM and 1.16 µM | 0.263 µM | 0.142 µM | 1.71 µM and 1.78 µM |  | 0.925 µM |  | 0.274 µM and 0.332 µM and 0.484 µM | 2.08 µM and 0.744 µM and 1.4 µM | 1.15 µM and 6.39 µM and 3.55 µM | 4.61 µM and 6.14 µM and 7.32 µM |  | 0.835 µM and 0.668 µM and 2.55 µM | 1.29 µM and 1.45 µM and 1.55 µM | 0.82 µM |  |  |  | 
7 | OCCN(CCO)c1ncnc2c1sc(=S)n2-c1ccccc1 | > 100 µM | > 100 µM |  | > 100 µM | > 100 µM | > 100 µM |  | > 100 µM | > 100 µM | > 100 µM | > 100 µM |  | > 100 µM |  |  |  |  |  | 
8 | C1=CC=C2NCCSCCNC3=CC=CC=CC3=NCCSCCN=C2C=C1 | > 100 µM | > 100 µM |  | > 100 µM | > 100 µM | > 100 µM |  | > 100 µM | > 100 µM | > 100 µM | > 100 µM |  | > 100 µM |  |  |  |  |  | 
9 | COC(=O)C1=C(C(=O)OC)N(C(C)C)[C@H]2C(C(=O)OC)=C(C(=O)OC)N(C(C)C)[C@@H]12 | > 100 µM | > 100 µM |  | > 100 µM | > 100 µM | > 100 µM |  | > 100 µM | > 100 µM | > 100 µM | > 100 µM |  | > 100 µM |  |  |  |  |  | 
10 | O=C1Cc2ccccc2CCc2ccccc21 | > 100 µM | > 100 µM |  | > 100 µM | > 100 µM | > 100 µM |  | > 100 µM | > 100 µM | > 100 µM | > 100 µM |  | > 100 µM |  |  |  |  |  | 
11 | COc1ccc(-c2conc2-c2ccccc2)cc1 | 1.42 µM |  | 0.0603 µM | > 100 µM |  |  | 0.324 µM | 4.37 µM | > 100 µM | 41.9 µM | > 100 µM | 0.64 µM | 40.9 µM | > 100 µM | 18.3 µM | 0.248 µM | 2.35 µM | 0.363 µM | 0.453 µM
12 | O=c1/c(=C/c2ccc3c(c2)OCO3)sc2nnc(Cc3ccccc3)n12 | > 100 µM | > 100 µM |  | > 100 µM | > 100 µM | > 100 µM |  | > 100 µM | > 100 µM | > 100 µM | > 100 µM |  | > 100 µM |  |  |  |  |  | 
13 | N#Cc1c(-c2ccc(Cl)cc2)csc1NC(=O)Nc1cccc(C(F)(F)F)c1 | 3.88 µM |  | 2.97 µM | 12.2 µM |  |  | 2.76 µM | 10.2 µM | 14.4 µM | 7 µM | 6.74 µM | 1.8 µM | 5.48 µM | 11.5 µM | 2.53 µM | 1.91 µM | 3.2 µM | 2.43 µM | 1.84 µM
14 | CCOc1ccccc1NC(=O)CCC(=O)NN | > 100 µM |  |  | > 100 µM | > 100 µM |  |  | > 100 µM | > 100 µM | > 100 µM | > 100 µM |  | > 100 µM |  |  |  |  |  | 
15 | CCOC(=O)/N=c1\ssc(Cl)c1Cl | 44.8 µM |  | 1.93 µM | > 100 µM |  |  | 21.3 µM | 54.3 µM | > 100 µM | > 100 µM | 30.7 µM | 4.97 µM | > 100 µM | 36 µM | 15.3 µM | 19 µM | 35.5 µM | 15.8 µM | 3.52 µM
16 | O=C(Nc1cccc(Cl)c1)c1cc(Cl)ccc1O | 6.71 µM |  | 0.542 µM | > 100 µM |  |  | 0.488 µM | 6.4 µM | > 100 µM | 2.18 µM | 2.87 µM | 0.369 µM | 7.08 µM | > 25.2 µM | 0.41 µM | 2.64 µM | 1.46 µM | 2.6 µM | 0.375 µM
17 | O=C(NOC(=O)c1ccc([N+](=O)[O-])cc1)c1ccc(Cl)cc1 | > 100 µM | > 100 µM |  | > 100 µM | > 100 µM | > 100 µM |  | > 100 µM | > 100 µM | > 100 µM | > 100 µM |  | > 100 µM |  |  |  |  |  | 

— PubChem BioAssay (NCI)
